In patent US12360121B2, “Assay for detection of an A2E-Saposin B complex” (Syracuse University, priority 2016, dated 2025):

Target: T1, Saposin B (Homo sapiens, UniProt P07602)
T1 sequence (P07602 195-273 limits assumed): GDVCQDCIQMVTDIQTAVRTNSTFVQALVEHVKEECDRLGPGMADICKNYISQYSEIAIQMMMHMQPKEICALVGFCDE
Assay: fluorescence spectroscopy showing binding of A2E by Saposin B
Settings: fluorescence spectroscopy graphs (FIG. 1A, FIG. 1B)
From the text: FIG. 1A is a first fluorescence spectroscopy graph showing that Saposin B binds A2E;
FIG. 1B is a second fluorescence spectroscopy graphs showing that Saposin B binds A2E;

binding of A2E by Saposin B: binds
SMILES: CC(C=CC1=C(C)CCCC1(C)C)=CC=CC(C)=Cc1cc(C=CC=C(C)C=CC2=C(C)CCCC2(C)C)cc[n+]1CCO [A2E, N-retinylidene-N-retinylethanolamine]
